Results published in patent US10182500B2, “Curable composition for photoimprint, cured product, and method of producing film having pattern, optical component, circuit board, or electronic component using the composition” (CANON KABUSHIKI KAISHA, priority 2014, dated 2019).
Like-named read-outs stand apart in the source and are kept apart here. Blank lines part the entries; values can stand above or below the molecule they belong to.

Experiments:
[1] = Saturated solubility in liquid condensable gas (PFP), visual observation; settings: for Saturated solubility: to PFP, liquid state at 5° C. and 1 atm
Experimental: (§1) An arbitrary amount of a photopolymerization initiator is weighed in a sample bottle at 23° C., and a condensable gas cooled to 5° C. to a liquid state is gradually added to the bottle until the photopolymerization initiator is completely dissolved. The sample bottle is capped and is left to stand in a refrigerator at 5° C. for 1 hour. The sample bottle is then subjected to visual observation whether the photopolymerization initiator is completely dissolved. The weight of the weighed photopolymerization initiator is divided by the sum of the weight of the photopolymerization initiator and the weight of the condensable gas in a liquid state, and the resulting quotient is expressed in percentage as the saturated solubility.
(§2) The sample bottle was capped and was left to stand in a refrigerator at 5° C. for 1 hour. The sample bottle was then visually observed.

[2] = 1 h
Experimental: as §1, §2

[3] = composition mainly composed of an acrylic monomer; cited from earlier work

Compound: Cc1cc(C)c(C(=O)P(=O)(c2ccccc2)c2ccccc2)c(C)c1 [Formula (1), 2,4,6-trimethylbenzoyldiphenylphosphine oxide]
Saturated solubility [2]: <1.0 % by weight
saturated solubility [2]: less than 1 % by weight

Compound: FC(F)CC(F)(F)F [1,1,1,3,3-pentafluoropropane]
PFP dissolved in curable composition for photoimprint [3]: about 40 % by volume

Compound: CC(C)c1ccc2sc3ccccc3c(=O)c2c1 [Formula (3), 2-isopropylthioxanthone]
Saturated solubility [1]: <1.0 % by weight

More lines, now with the values ahead:

saturated solubility ([1]; at 5° C. in PFP being a liquid state at 5° C. and 1 atm): higher than 2.67 % by weight
Compound: COC(OC)(C(=O)c1ccccc1)c1ccccc1 [Formula (6), benzyl dimethyl ketal]

Saturated solubility [1]: <1.0 % by weight
Compound: CCN(CC)c1ccc(C(=O)c2ccc(N(CC)CC)cc2)cc1 [Formula (4), 4,4′-bis(diethylamino)benzophenone]
